Experimental data published in PMC4046051, “Two M-T hook residues greatly improve the antiviral activity and resistance profile of the HIV-1 fusion inhibitor SC29EK” (Retrovirology, 2014).
Peptide text beside a SMILES is read from it.

Legend:
[1] = tested on: wild-type HIV-1NL4-3; format: cell-based; settings: for IC50: wild-type HIV-1NL4-3, 100 TCID50, TZM-bl cells, two days, luciferase, mean ± SD of three independent experiments, SD, read-out: IC50 Replication
Experimental: The inhibition of peptides on HIV-1 replication was determined by a molecular cloned wild-type HIV-1NL4–3. In brief, the virus stock was harvested and quantified 48 h post-transfection. 100 TCID50 viruses were used to infect TZM-bl cells in the presence or absence of serially diluted peptides. Two days post-infection, the cells were harvested and lysed in reporter lysis buffer and the luciferase activity was measured as described above.

[2] = tested on: HIV-1 NL4-3 N43K; assay: Inhibition of T20-resistant HIV-1 variants: N43K; format: cell-based; settings: for IC50: mean ± SD of three independent experiments
Experimental: (§1) The inhibition of peptides on the HIV-1 entry was determined by single-cycle infection assay as described previously. Briefly, HIV-1 pseudovirus was generated by cotransfecting 293 T cells with an Env-expressing plasmid and a backbone plasmid pSG3^Δenv that encodes Env-defective, luciferase-expressing HIV-1 genome. The supernatants were harvested and filtered 48 h after transfection and 50% tissue culture infectious dose (TCID50) was determined in TZM-bl cells. The peptides were prepared with 3-fold dilutions and mixed with 100 TCID50 viruses and then incubated 1 h at room temperature. The mixture was added to TZM-bl cells (10^4/well) and incubated 48 h at 37°C. The luciferase activity was measured using luciferase assay reagents and a Luminescence Counter (Promega).

[3] = target: T1, NHR peptide N36 (HIV-1 gp41) (Human immunodeficiency virus type 1 group M subtype B, UniProt P04578); assay: Isothermal titration calorimetry (ITC) with N36; format: binding; settings: 25°C; for Kd: 1 mM N36 injected into 100 μM peptide, read-out: binding constant (K) (converted)
T1 construct: made in house; host or cells: chemical synthesis (solid-phase FMOC), no expression host
Experimental: ITC assay was performed using an ITC200 Microcalorimeter instrument (MicroCal, USA) as described previously. In brief, 1 mM N36 dissolved in ddH20 was injected into the chamber containing 100 μM SC29EK or MT-SC29EK. The experiments were carried out at 25°C. The time between injections was 240 s and the stirring speed was 500 rpm. The heats of dilution were determined in control experiments by injecting N36 into ddH20 and subtracted from the heats produced in the corresponding peptide-peptide binding experiments. Data acquisition and analysis were performed using MicroCal Origin software (version 7.0).

[4] = tested on: HIV-1 NL4-3 WT; assay: Inhibition of T20-resistant HIV-1 variants panel: WT; format: cell-based; settings: for IC50: mean ± SD of three independent experiments, SD
Experimental: as §1

[5] = tested on: HIV-1 NL4-3 I37T/N43K; assay: Inhibition of T20-resistant HIV-1 variants: I37T/N43K; format: cell-based; settings: for IC50: mean ± SD of three independent experiments
Experimental: as §1

[6] = tested on: HIV-1 NL4-3 V38M; assay: Inhibition of T20-resistant HIV-1 variants: V38M; format: cell-based; settings: for IC50: mean ± SD of three independent experiments, SD
Experimental: as §1

[7] = target: T2, six-helical bundle (6-HB) of N36 and biotinylated-C34 (Human immunodeficiency virus type 1 group M subtype B, UniProt P04578); assay: Inhibition of 6-HB formation, NC-1 capture ELISA; format: biochemical, HIV-1; settings: for IC50: biotinylated-C34 0.1 μM, N36 0.1 μM, 30 min room temperature, 3 independent experiments
T2 construct: made in house; host or cells: chemical synthesis (solid-phase FMOC), no expression host
Experimental: The 6-HB core-specific monoclonal antibody NC-1 was obtained from Dr. Shibo Jiang in the New York Blood Center (New York, NY) through the ARRRP, Division of AIDS, NIAID, National Institute of Health. The inhibitory activity of SC29EK or MT-SC29EK on the 6-HB formation was measured by a modified ELISA as previously described. Briefly, a 96-well polystyrene plate was coated with 2 μg/ml NC-1 in 0.1 M Tris buffer (pH 8.8). A tested peptide at graded concentrations was mixed with the biotinylated-C34 (0.1 μM) and incubated with N36 (0.1 μM) at room temperature for 30 min. The mixture was then added to the NC-1-coated plate, followed by incubation for 30 min and washing with a washing buffer (PBS containing 0.1% Tween 20) three times. Then horseradish peroxidase (HRP)-labeled streptavidin (Invitrogen) and the substrate 3,3,5,5- tetramethylbenzidine (Sigma) were sequentially added. Absorbance at 450 nm (A450) was measured using an ELISA reader.

[8] = tested on: HIV-1 NL4-3 I37T; assay: Inhibition of T20-resistant HIV-1 variants: I37T; format: cell-based; settings: for IC50: mean ± SD of three independent experiments, SD
Experimental: as §1

[9] = tested on: HIV-1 NL4-3 D36S/V38M; assay: Inhibition of T20-resistant HIV-1 variants: D36S/V38M; format: cell-based; settings: for IC50: mean ± SD of three independent experiments, SD
Experimental: as §1

[10] = target: T1, NHR peptide N36 (HIV-1 gp41); assay: CD thermal denaturation of 6-HB formed by CHR peptide and N36; format: binding; settings: CHR peptide + N36, each 10 μM in PBS pH 7.2; CD at 222 nm, 20-98°C
Experimental: (§2) CD spectroscopy was performed according to our protocols described previously. […] The final concentration of each peptide was 10 μM in PBS buffer (pH 7.2). The CD spectra were acquired on a Jasco spectropolarimeter (model J-815) using a 1 nm bandwidth with a 1 nm step resolution from 195 to 260 nm at room temperature. The spectra were corrected by subtraction of a blank corresponding to the solvent. Data were averaged over three accumulations. The α-helical content was calculated from the CD signal by dividing the mean residue ellipticity [θ] at 222 nm by the value expected for 100% helix formation (-33,000 degrees.cm^2.dmol^-1). The thermal denaturation experiment was performed by monitoring the change in ellipticity [θ] at 222 nm at the increasing temperature (20–98°C) using temperature controller. The temperature was increased at a rate of 1.2°C per min; data were acquired at a 1 nm bandwidth at 222 nm at a frequency of 0.25 Hz. The melting curve was smoothened, and the midpoint of the thermal unfolding transition (Tm) values were taken as the maximum of the derivative d [θ]222/dT. The Tm value was detected at a peptide concentration of 10 μM in PBS buffer.

[11] = tested on: HIV-1NL4-3 pseudovirus; format: cell-based; settings: for IC50: 100 TCID50, TZM-bl cells, 48 h, luciferase, mean ± SD of three independent experiments, SD, read-out: IC50 Entry
Experimental: as §1

[12] = tested on: HIV-1 NL4-3 V38A; assay: Inhibition of T20-resistant HIV-1 variants: V38A; format: cell-based; settings: for IC50: mean ± SD of three independent experiments, SD
Experimental: as §1

[13] = tested on: HIV-1 NL4-3 V38A/N42T; assay: Inhibition of T20-resistant HIV-1 variants: V38A/N42T; format: cell-based; settings: for IC50: mean ± SD of three independent experiments, SD
Experimental: as §1

[14] = tested on: HIV-1 NL4-3 Q40H; assay: Inhibition of T20-resistant HIV-1 variants: Q40H; format: cell-based; settings: for IC50: mean ± SD of three independent experiments, SD
Experimental: as §1

[15] = tested on: N36 mutant V38A; assay: CD thermal denaturation of 6-HB formed with N36 mutant V38A; format: binding, HIV-1; settings: CHR peptide + N36 V38A mutant, each 10 μM in PBS
Experimental: as §2

[16] = tested on: molecular clone of HIV-1NL4-3; assay: In vitro selection of HIV-1 resistance in MT-4 cells; format: cell-based; settings: 1.5-2 fold escalating concentrations, after 35 generations of passage over 7 months
Experimental: The in vitro selection of HIV-1 resistance to peptide inhibitors was performed as described previously. Briefly, MT-4 cells were seeded at 1 × 10^4 in RPMI 1640 medium containing 10% fetal bovine serum on 12-well plates. The molecular clone of HIV-1NL4–3 was used to infect the cells in the presence or absence of diluted peptide inhibitors (SC29EK, MT-SC29EK, SC22EK and MT-SC22EK). The cells were incubated at 37°C with 5% CO2 until an extensive cytopathic effect was observed. The culture supernatants were harvested and used for next passage on fresh MT-4 cells with 1.5-2 fold increasing concentrations of peptide. Cells and supernatant were harvested at regular time points and stored at -80°C.

[17] = target: T3, N36 mutant I37T/N43K (Human immunodeficiency virus type 1 group M subtype B, UniProt P04578, I548T/N554K); assay: CD thermal denaturation of 6-HB formed with N36 mutant I37T/N43K; format: binding, HIV-1; settings: CHR peptide + N36 I37T/N43K mutant, each 10 μM in PBS
T3 construct: A panel of N36-based peptides carrying a single (I37T, V38A, Q40H, N43K) or double (I37T/N43K and V38A/N42T) NHR mutations; made in house; host or cells: chemical synthesis (solid-phase FMOC), no expression host
Experimental: as §2

Compound | IC50 [1] [nM] | n-fold relative to the IC50 of the wild-type (WT) virus [2] | Kd [3] [nM] | n-fold relative to the IC50 of the wild-type (WT) virus [4] | IC50 [4] [nM] | n-fold relative to the IC50 of the wild-type (WT) virus [5] | n-fold relative to the IC50 of the wild-type (WT) virus [6] | IC50 [6] [nM] | IC50 [7] [nM] | n-fold relative to the IC50 of the wild-type (WT) virus [8] | IC50 [8] [nM] | n-fold relative to the IC50 of the wild-type (WT) virus [9] | IC50 [9] [nM] | Tm (midpoint of the thermal unfolding transition) of 6-HB [10] [°C] | IC50 [11] [nM] | n-fold relative to the IC50 of the wild-type (WT) virus [12] | IC50 [12] [nM] | n-fold relative to the IC50 of the wild-type (WT) virus [13] | IC50 [13] [nM] | n-fold relative to the IC50 of the wild-type (WT) virus [14] | also measured
CC[C@H](C)[C@H](NC(=O)[C@H](CC(C)C)NC(=O)[C@H](CCC(=O)O)NC(=O)[C@H](CCC(=O)O)NC(=O)[C@@H](NC(=O)[C@H](CCCCN)NC(=O)[C@H](CCCCN)NC(=O)[C@@H](NC(=O)[C@H](Cc1ccc(O)cc1)NC(=O)[C@H](CCC(=O)O)NC(=O)[C@H](CCC(=O)O)NC(=O)[C@@H](NC(=O)[C@H](CCCCN)NC(=O)[C@H](CCCCN)NC(=O)[C@H](CC(=O)O)NC(=O)[C@H](Cc1c[nH]c2ccccc12)NC(=O)[C@H](CCC(=O)O)NC(=O)[C@H](CCC(=O)O)NC(=O)[C@H](Cc1c[nH]c2ccccc12)NC(=O)[C@@H](NC(=O)[C@H](CCSC)NC(C)=O)[C@@H](C)O)[C@@H](C)CC)[C@@H](C)O)[C@@H](C)CC)C(=O)N[C@@H](CCCCN)C(=O)N[C@@H](CCCCN)C(=O)N[C@@H](CO)C(=O)N[C@@H](CCC(=O)O)C(=O)N[C@@H](CCC(=O)O)C(=O)N[C@@H](CCC(N)=O)C(=O)N[C@@H](CCC(N)=O)C(=O)N[C@@H](CCCCN)C(=O)N[C@@H](CCCCN)C(=O)N[C@@H](CC(N)=O)C(N)=O [MT-SC29EK] (Ac-MTWEEWDKKIEEYTKKIEELIKKSEEQQKKN-NH2) | 0.2 | 12 | 15.5 | 1 | 0.6 ± 0.1 | 35.3 | 2.8 | 1.7 | 600 | 1.3 | 0.8 ± 0.2 | 2 | 1.2 | 79.1 | 0.7 | 1 | 0.6 ± 0.1 | 1 | 0.6 | 1.3 | fold increase of potency over SC29EK, replication ([1]; wild-type HIV-1NL4-3): 4.5 fold; IC50 ([2]; SD): 7.2 ± 0.2 nM; fold increase of K value compared to SC29EK [3]: 4.7 fold; IC50 ([5]; SD): 21.2 ± 4.4 nM; fold increase of 6-HB blocking potency over SC29EK [7]: 23 fold; fold increased potency over SC29EK, entry [11]: 3.1 fold; IC50 [14]: 0.8 ± 0.1 nM
CC[C@H](C)[C@H](NC(=O)[C@H](CC(C)C)NC(=O)[C@H](CCC(=O)O)NC(=O)[C@H](CCC(=O)O)NC(=O)[C@@H](NC(=O)[C@H](CCCCN)NC(=O)[C@H](CCCCN)NC(=O)[C@@H](NC(=O)[C@H](Cc1ccc(O)cc1)NC(=O)[C@H](CCC(=O)O)NC(=O)[C@H](CCC(=O)O)NC(=O)[C@@H](NC(=O)[C@H](CCCCN)NC(=O)[C@H](CCCCN)NC(=O)[C@H](CC(=O)O)NC(=O)[C@H](Cc1c[nH]c2ccccc12)NC(=O)[C@H](CCC(=O)O)NC(=O)[C@H](CCC(=O)O)NC(=O)[C@H](Cc1c[nH]c2ccccc12)NC(C)=O)[C@@H](C)CC)[C@@H](C)O)[C@@H](C)CC)C(=O)N[C@@H](CCCCN)C(=O)N[C@@H](CCCCN)C(=O)N[C@@H](CO)C(=O)N[C@@H](CCC(=O)O)C(=O)N[C@@H](CCC(=O)O)C(=O)N[C@@H](CCC(N)=O)C(=O)N[C@@H](CCC(N)=O)C(=O)N[C@@H](CCCCN)C(=O)N[C@@H](CCCCN)C(=O)N[C@@H](CC(N)=O)C(N)=O [SC29EK] (Ac-WEEWDKKIEEYTKKIEELIKKSEEQQKKN-NH2) | 0.9 ± 0.2 | >138.9 | 71.9 | 1 | 1.8 ± 0.2 | >138.9 | 8.4 | 15.1 ± 1.8 | 14000 | 8.3 | 15 ± 0.3 | 6.5 | 11.7 ± 0.7 | 69.1 | 2.2 ± 0.3 | 9 | 16.2 ± 1.9 | 20.9 | 37.7 ± 6.4 | 46.6 | IC50 [2]: > 250 nM; IC50 [5]: > 250 nM; Tm of 6-HB [15]: 62.1 °C; peptide concentration reached during in vitro selection of resistant virus [16]: 2,650 nM; IC50 [14]: 83.8 ± 10.8 nM; Tm of 6-HB [17]: 61.1 °C
